Measured values reported in ChEMBL document CHEMBL3046822, “Synthesis, antiplatelet aggregation activity, and molecular modeling study of novel substituted-piperazine analogues” (2011).
Calls of active or inactive are those of the source. The calls are words filed in the database; no cut-off is given here.

Assays:
Platelet [1] = assay: Antiaggregating activity in Homo sapiens (human) platelet rich plasma assessed as inhibition of ADP-induced platelet aggregation at 2.5 uM incubated for 4 min prior to ADP-induction measured for 5.5 min by turbidometric analysis; type: functional, cell-free
Platelet [2] = assay: Antiaggregating activity in Homo sapiens (human) platelet rich plasma assessed as inhibition of adrenaline-induced platelet aggregation at 0.5 uM incubated for 4 min prior to adrenaline-induction measured for 5.5 min by turbidometric analysis; type: functional, cell-free
Platelet [3] = assay: Antiaggregating activity in Homo sapiens (human) platelet rich plasma assessed as inhibition of collagen-induced platelet aggregation at 2.5 uM incubated for 4 min prior to collagen-induction measured for 5.5 min by turbidometric analysis; type: functional, cell-free
Platelet [4] = assay: Antiaggregating activity in Homo sapiens (human) platelet rich plasma assessed as inhibition of adrenaline-induced platelet aggregation at 0.25 uM incubated for 4 min prior to adrenaline-induction measured for 5.5 min by turbidometric analysis; type: functional, cell-free
[5] = Antiaggregating activity in Homo sapiens (human) platelet rich plasma assessed as disaggregation of ADP-induced platelet aggregation at 0.25 uM incubated for 4 min prior to ADP-induction measured for 5.5 min by turbidometric analysis relative to control; type: functional
Platelet [6] = assay: Antiaggregating activity in Homo sapiens (human) platelet rich plasma assessed as inhibition of arachidonic acid-induced platelet aggregation at 0.5 uM incubated for 4 min prior to arachidonic acid-induction measured for 5.5 min by turbidometric analysis; type: functional
Platelet [7] = assay: Antiaggregating activity in Homo sapiens (human) platelet rich plasma assessed as inhibition of arachidonic acid-induced platelet aggregation at 0.25 uM incubated for 4 min prior to arachidonic acid-induction measured for 5.5 min by turbidometric analysis; type: functional, cell-free
[8] = Antiaggregating activity in Homo sapiens (human) platelet rich plasma assessed as ristocetin-induced platelet aggregation at 0.25 uM incubated for 4 min prior to ristocetin-induction measured for 5.5 min by turbidometric analysis (reference value: 65 to 99%); type: functional
Platelet [9] = assay: Antiaggregating activity in Homo sapiens (human) platelet rich plasma assessed as inhibition of collagen-induced platelet aggregation at 0.25 uM incubated for 4 min prior to collagen-induction measured for 5.5 min by turbidometric analysis; type: functional
Platelet [10] = assay: Antiaggregating activity in Homo sapiens (human) platelet rich plasma assessed as inhibition of adrenaline-induced platelet aggregation at 2.5 uM incubated for 4 min prior to adrenaline-induction measured for 5.5 min by turbidometric analysis; type: functional, cell-free
Platelet [11] = assay: Antiaggregating activity in Homo sapiens (human) platelet rich plasma assessed as collagen-induced platelet aggregation at 0.25 uM incubated for 4 min prior to collagen-induction measured for 5.5 min by turbidometric analysis (reference value: 50 to 98%); type: functional
Platelet [12] = assay: Antiaggregating activity in Homo sapiens (human) platelet rich plasma assessed as inhibition of arachidonic acid-induced platelet aggregation at 2.5 uM incubated for 4 min prior to arachidonic acid-induction measured for 5.5 min by turbidometric analysis; type: functional, cell-free
Platelet [13] = assay: Antiaggregating activity in Homo sapiens (human) platelet rich plasma assessed as inhibition of collagen-induced platelet aggregation at 0.5 uM incubated for 4 min prior to collagen-induction measured for 5.5 min by turbidometric analysis; type: functional, cell-free
[14] = Antiaggregating activity in Homo sapiens (human) platelet rich plasma assessed as ristocetin-induced platelet aggregation at 0.5 uM incubated for 4 min prior to ristocetin-induction measured for 5.5 min by turbidometric analysis (reference value: 65 to 99%); type: functional
Platelet [15] = assay: Antiaggregating activity in Homo sapiens (human) platelet rich plasma assessed as inhibition of ADP-induced platelet aggregation at 0.5 uM incubated for 4 min prior to ADP-induction measured for 5.5 min by turbidometric analysis; type: functional, cell-free
[16] = Antiaggregating activity in Homo sapiens (human) platelet rich plasma assessed as ristocetin-induced platelet aggregation at 1 uM incubated for 4 min prior to ristocetin-induction measured for 5.5 min by turbidometric analysis (reference value: 65 to 99%); type: functional
Platelet [17] = assay: Antiaggregating activity in Homo sapiens (human) platelet rich plasma assessed as inhibition of ADP-induced platelet aggregation at 1 uM incubated for 4 min prior to ADP-induction measured for 5.5 min by turbidometric analysis; type: functional, cell-free
Platelet [18] = assay: Antiaggregating activity in Homo sapiens (human) platelet rich plasma assessed as inhibition of collagen-induced platelet aggregation at 1 uM incubated for 4 min prior to collagen-induction measured for 5.5 min by turbidometric analysis; type: functional, cell-free
Platelet [19] = assay: Antiaggregating activity in Homo sapiens (human) platelet rich plasma assessed as inhibition of arachidonic acid-induced platelet aggregation at 1 uM incubated for 4 min prior to arachidonic acid-induction measured for 5.5 min by turbidometric analysis; type: functional, cell-free
Platelet [20] = assay: Antiaggregating activity in Homo sapiens (human) platelet rich plasma assessed as inhibition of adrenaline-induced platelet aggregation at 1 uM incubated for 4 min prior to adrenaline-induction measured for 5.5 min by turbidometric analysis; type: functional, cell-free
[21] = Antiaggregating activity in Homo sapiens (human) platelet rich plasma assessed as collagen-induced platelet aggregation at 0.5 uM incubated for 4 min prior to collagen-induction measured for 5.5 min by turbidometric analysis (reference value: 50 to 98%); type: functional
[22] = Antiaggregating activity in Homo sapiens (human) platelet rich plasma assessed as arachidonic acid-induced platelet aggregation at 0.5 uM incubated for 4 min prior to arachidonic acid-induction measured for 5.5 min by turbidometric analysis (reference value: 55 to 100%); type: functional
Platelet [23] = assay: Antiaggregating activity in Homo sapiens (human) platelet rich plasma assessed as inhibition of collagen-induced platelet aggregation at 2 uM incubated for 4 min prior to collagen-induction measured for 5.5 min by turbidometric analysis; type: functional, cell-free
[24] = Antiaggregating activity in Homo sapiens (human) platelet rich plasma assessed as arachidonic acid-induced platelet aggregation at 1 uM incubated for 4 min prior to arachidonic acid-induction measured for 5.5 min by turbidometric analysis (reference value: 55 to 100%); type: functional
Platelet [25] = assay: Antiaggregating activity in Homo sapiens (human) platelet rich plasma assessed as inhibition of ristocetin-induced platelet aggregation at 5 uM incubated for 4 min prior to ristocetin-induction measured for 5.5 min by turbidometric analysis; type: functional, cell-free
[26] = Antiaggregating activity in Homo sapiens (human) platelet rich plasma assessed as disaggregation of ADP-induced platelet aggregation at 1 uM incubated for 4 min prior to ADP-induction measured for 5.5 min by turbidometric analysis relative to control; type: functional
Platelet [27] = assay: Antiaggregating activity in Homo sapiens (human) platelet rich plasma assessed as inhibition of adrenaline-induced platelet aggregation at 5 uM incubated for 4 min prior to adrenaline-induction measured for 5.5 min by turbidometric analysis; type: functional, cell-free
Platelet [28] = assay: Antiaggregating activity in Homo sapiens (human) platelet rich plasma assessed as inhibition of collagen-induced platelet aggregation at 5 uM incubated for 4 min prior to collagen-induction measured for 5.5 min by turbidometric analysis; type: functional, cell-free
Platelet [29] = assay: Antiaggregating activity in Homo sapiens (human) platelet rich plasma assessed as inhibition of ADP-induced platelet aggregation at 5 uM incubated for 4 min prior to ADP-induction measured for 5.5 min by turbidometric analysis; type: functional, cell-free
Platelet [30] = assay: Antiaggregating activity in Homo sapiens (human) platelet rich plasma assessed as inhibition of arachidonic acid-induced platelet aggregation at 2 uM incubated for 4 min prior to arachidonic acid-induction measured for 5.5 min by turbidometric analysis; type: functional, cell-free
[31] = Antiaggregating activity in Homo sapiens (human) platelet rich plasma assessed as ADP-induced platelet aggregation at 0.5 uM incubated for 4 min prior to ADP-induction measured for 5.5 min by turbidometric analysis (reference value: 54 to 88%); type: functional
Platelet [32] = assay: Antiaggregating activity in Homo sapiens (human) platelet rich plasma assessed as inhibition of arachidonic acid-induced platelet aggregation at 5 uM incubated for 4 min prior to arachidonic acid-induction measured for 5.5 min by turbidometric analysis; type: functional, cell-free
[33] = Antiaggregating activity in Homo sapiens (human) platelet rich plasma assessed as ristocetin-induced platelet aggregation at 2 uM incubated for 4 min prior to ristocetin-induction measured for 5.5 min by turbidometric analysis (reference value: 65 to 99%); type: functional
Platelet [34] = assay: Antiaggregating activity in Homo sapiens (human) platelet rich plasma assessed as inhibition of ADP-induced platelet aggregation at 2 uM incubated for 4 min prior to ADP-induction measured for 5.5 min by turbidometric analysis; type: functional, cell-free
Platelet [35] = assay: Antiaggregating activity in Homo sapiens (human) platelet rich plasma assessed as inhibition of adrenaline-induced platelet aggregation at 2 uM incubated for 4 min prior to adrenaline-induction measured for 5.5 min by turbidometric analysis; type: functional, cell-free
[36] = Antiaggregating activity in Homo sapiens (human) platelet rich plasma assessed as arachidonic acid-induced platelet aggregation at 0.1 uM incubated for 4 min prior to arachidonic acid-induction measured for 5.5 min by turbidometric analysis (reference value: 55 to 100%); type: functional
[37] = Antiaggregating activity in Homo sapiens (human) platelet rich plasma assessed as ristocetin-induced platelet aggregation at 0.1 uM incubated for 4 min prior to ristocetin-induction measured for 5.5 min by turbidometric analysis (reference value: 65 to 99%); type: functional
Platelet [38] = assay: Antiaggregating activity in Homo sapiens (human) platelet rich plasma assessed as inhibition of ADP-induced platelet aggregation at 0.25 uM incubated for 4 min prior to ADP-induction measured for 5.5 min by turbidometric analysis; type: functional, cell-free
Platelet [39] = assay: Antiaggregating activity in Homo sapiens (human) platelet rich plasma assessed as inhibition of adrenaline-induced platelet aggregation at 0.1 uM incubated for 4 min prior to adrenaline-induction measured for 5.5 min by turbidometric analysis; type: functional, cell-free
[40] = Antiaggregating activity in Homo sapiens (human) platelet rich plasma assessed as ADP-induced platelet aggregation at 0.1 uM incubated for 4 min prior to ADP-induction measured for 5.5 min by turbidometric analysis (reference value: 54 to 88%); type: functional
[41] = Antiaggregating activity in Homo sapiens (human) platelet rich plasma assessed as collagen-induced platelet aggregation at 0.1 uM incubated for 4 min prior to collagen-induction measured for 5.5 min by turbidometric analysis (reference value: 50 to 98%); type: functional

Row | Structure (SMILES) | inhibition (Platelet [1]) | inhibition (Platelet [2]) | inhibition (Platelet [3]) | inhibition (Platelet [4]) | inhibition (Platelet [6]) | inhibition (Platelet [7]) | Activity [8] [%] | inhibition (Platelet [9]) | inhibition (Platelet [10]) | inhibition (Platelet [11]) | inhibition (Platelet [12]) | inhibition (Platelet [13]) | Activity [14] [%] | inhibition (Platelet [15]) | Activity [16] [%] | inhibition (Platelet [17]) | inhibition (Platelet [18]) | inhibition (Platelet [19]) | inhibition (Platelet [20]) | Activity [21] [%] | other results
1 | Cl.O=C(c1ccc(Br)cc1)N1CCCC(C(=O)N2CCN(c3ccccc3Cl)CC2)C1 (stereo not given) | Active | Active | Active | Active | Active | Active | 81 | Active | Active | Active | Active | Active | 75 | Active |  |  |  |  |  |  | Activity [5]: 47%
2 | Cl.Cl.O=C(C1CCCN(Cc2ccccc2F)C1)N1CCN(C(=O)C2CCCN(Cc3ccccc3F)C2)CC1 (stereo not given) | Active |  | Active |  |  |  |  |  | Active | Active | Active |  |  |  | 64 | Active | Active | Active | Active |  | 
3 | Cl.Cl.O=C(C1CCCN(Cc2ccc(CN3CCCC(C(=O)N4CCN(c5ncccn5)CC4)C3)cc2)C1)N1CCN(c2ncccn2)CC1 (stereo not given) |  | Active |  |  | Active |  |  |  |  |  |  |  | 92 | Active | 58 | Active | Active | Active | Active | 23 | 
4 | O=C(c1ccc[n+](Cc2ccccc2F)c1)N1CCN(c2ccccc2Cl)CC1.[Cl-] |  | Active |  |  |  |  |  |  |  |  |  |  | 89 |  | 85 |  | Active |  | Active | 90 | Activity [22]: 71%; inhibition (Platelet [23]): Active; Activity [24]: 80%; inhibition (Platelet [25]): Active; Activity [26]: 55%; inhibition (Platelet [27]): Active; inhibition (Platelet [28]): Active; inhibition (Platelet [29]): Active; inhibition (Platelet [30]): Active; Activity [31]: 71%; inhibition (Platelet [32]): Active; Activity [33]: 66%; inhibition (Platelet [34]): Active; inhibition (Platelet [35]): Active
5 | Cl.Cl.O=C(C1CCCN(Cc2ccccc2)C1)N1CCN(C(=O)C2CCCN(Cc3ccccc3)C2)CC1 (stereo not given) |  |  |  |  |  |  |  |  |  |  |  |  |  |  |  |  |  |  |  |  | inhibition (Platelet [23]): Active; inhibition (Platelet [30]): Active; Activity [33]: 9%; inhibition (Platelet [34]): Active; inhibition (Platelet [35]): Active
6 | Cl.O=C(C1CCCN(Cc2ccccc2)C1)N1CCN(c2ccccc2Cl)CC1 (stereo not given) |  | Active |  | Active | Active | Active | 30 | Active |  |  |  | Active | 26 | Active | 22 | Active | Active | Active | Active |  | inhibition (Platelet [25]): Active; Activity [36]: 23%; inhibition (Platelet [27]): Active; inhibition (Platelet [28]): Active; inhibition (Platelet [29]): Active; Activity [37]: 90%; inhibition (Platelet [38]): Active; inhibition (Platelet [32]): Active; inhibition (Platelet [39]): Active; Activity [40]: 86%; Activity [41]: 100%
